Results: ChEMBL document CHEMBL1833860 (Bioorg Med Chem Lett, 2011)
Converted amounts (≈) assume the structure as drawn.

Columns and labels:
[1] = Dissociation constant, pKa of the compound; format: physicochemical
[2] = Volume of distribution at steady state in rat at 1 mg/kg, iv and 3 mg/kg, po; format: ADME, organism-based; details: in vivo, read-out: Vdss
[3] = Half life in rat at 1 mg/kg, iv and 3 mg/kg, po; format: ADME, organism-based; details: in vivo
[4] = Clearance in rat at 1 mg/kg, iv and 3 mg/kg, po; format: ADME, organism-based; details: in vivo
[5] = Oral bioavailability in rat at 3 mg/kg; format: ADME, organism-based; details: in vivo
[6] = Distribution coefficient, log D of compound; format: physicochemical; details: octanol/water
[7] = Aqueous solubility of compound in fed state simulated intestinal fluid at pH 6.5; format: physicochemical

| pKa [1] | Vd [2] | half-life [3] | clearance [4] | bioavailability [5] | logD [6] | solubility [7] | Structure (SMILES) |
| --- | --- | --- | --- | --- | --- | --- | --- |
| 8.1 | 4 L/kg | 1.9 h | 32 mL/min/kg | 14% |  |  | Cc1cccc(Nc2nc(N[C@@H]3CCOC[C@@H]3N)ncc2C(N)=O)c1 |
| 9.4 |  |  |  |  |  |  | Cc1cccc(Nc2nc(N[C@@H]3CCCC[C@@H]3N)ncc2C(N)=O)c1 |
|  | 3.9 L/kg | 2.3 h | 45 mL/min/kg | 10% |  |  | COc1ccc(Nc2nc(N[C@@H]3CCOC[C@@H]3N)ncc2C(N)=O)cc1 |
| 7.9 |  |  |  |  |  |  | Cc1cccc(Nc2nc(N[C@@H]3CC(F)(F)CC[C@@H]3N)ncc2C(N)=O)c1 (racemic) |
|  | 4.1 L/kg | 4.2 h | 16 mL/min/kg | 30% | 0.9 | 420 µg/mL (≈ 1230 µM) | Cc1ccc(Nc2nc(N[C@@H]3CCOC[C@@H]3N)ncc2C(N)=O)cc1 |
